Measured values from patent EP4813984A1 (Jiangsu Hengrui Pharmaceuticals Co., Ltd., priority 2023, dated 2025).

Legend:
hGLP-1 receptor = target: T1, hGLP-1 receptor (Homo sapiens, UniProt P43220); assay: Agonist activity against GLP-1 receptor (CRE-luciferase reporter, ONE-Glo Luciferase Assay System); format: cell-based; settings: CHO-K1/CRE-luc/hGLP-1 receptor cells; 5 h incubation with compound; chemiluminescence readout
T1 construct: expressed in transfected cells; host or cells: CHO-K1 (stably transfected with hGLP-1 receptor plasmid and CRE-luc plasmid)
T1 sequence (P43220 24-463): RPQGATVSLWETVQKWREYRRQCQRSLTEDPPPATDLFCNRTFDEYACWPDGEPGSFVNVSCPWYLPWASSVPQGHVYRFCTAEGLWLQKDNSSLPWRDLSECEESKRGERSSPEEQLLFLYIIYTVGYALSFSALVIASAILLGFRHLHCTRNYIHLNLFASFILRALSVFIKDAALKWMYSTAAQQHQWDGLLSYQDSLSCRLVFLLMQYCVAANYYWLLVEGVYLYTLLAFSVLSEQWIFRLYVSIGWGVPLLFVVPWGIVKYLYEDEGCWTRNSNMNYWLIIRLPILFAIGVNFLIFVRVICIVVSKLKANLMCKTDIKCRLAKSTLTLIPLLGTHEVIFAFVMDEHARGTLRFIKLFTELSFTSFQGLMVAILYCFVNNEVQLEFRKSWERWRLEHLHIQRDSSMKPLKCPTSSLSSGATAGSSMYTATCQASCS
Text: This experiment was intended to test the agonist activity of compound molecules against hGLP-1 receptor and evaluate the in vitro activity of the molecules according to EC50. In this experiment, ONE-Glo™ Luciferase Assay System (ONE-Glo™ Luciferase Assay System, Promega, E6110) was used. Under the action of the compound molecules, GLP-1R downstream signaling pathways were activated to cause elevated cAMP level. The binding of cAMP to CRE could initiate the transcriptional expression of a CRE downstream luciferase gene. The luciferase could emit fluorescence when reacting with a substrate thereof. The fluorescence signal, which reflected the activity of the compound for agonizing GLP-1 receptor, was measured by means ONE-Glo™ reagent.
A stably transfected CHO-K1/CRE-luc/hGLP-1 receptor cell strain (hGLP-1 receptor plasmid constructed in-house and CRE-luc plasmid Promega E8471) was constructed. CHO-K1/CRE-luc/hGLP-1 receptor cells were digested, centrifuged, and then resuspended. The single cell suspension was uniformly mixed and adjusted to a viable cell density of 2.78 × 10^5 cells/ml with a cell culture medium (DME/F-12 + 10% FBS). The resulting solution was added to a 96-well cell culture plate at 90 µL/well (Corning, #3903). The culture plate was incubated in an incubator for 16 h (37°C, 5% CO2).
The compound was dissolved in DMSO to prepare a stock solution with an initial concentration of 20 mM. The starting concentration of the small molecule compound was 0.02 mM. The compound was subjected to 3-fold dilution for 10 points, wherein the 11th point was DMSO. Another 96-well plate was taken, to which was added 95 µL/well of a cell culture medium (DME/F-12 + 10% FBS), followed by 5 µL/well of test samples with different concentrations. The mixtures were uniformly mixed. Next, 10 µL/well of test samples with different concentrations were added to the cell culture plate, with two duplicate wells for each sample. The culture plate was incubated in an incubator for 5 h (37°C, 5% CO2). The 96-well cell culture plate was taken out. 100 µL/well of ONE-Glo™ reagent was added, followed by incubation at room temperature for 10 minutes. Chemiluminescence was measured in and by a microplate reader (PHERAstar FS, BMG labtech).
Data were processed and analyzed using Microsoft Excel and Graphpad Prism 10. EC50 values of the compounds were obtained. Table 1. Agonist activity of the compounds of the present invention against hGLP-1 receptor

[1] = Pharmacokinetic evaluation in monkeys after intragastric gavage (plasma LC-MS/MS); format: in vivo; settings: both sexes, cynomolgus monkey, po, i.g., 1 mg/kg
Experimental: Using cynomolgus monkeys as test animals, the plasma concentrations of the example compounds at different time points were determined by an LC-MS/MS method following administration to the monkeys by intragastric gavage (i.g.). The pharmacokinetic behaviors of the compounds of the present invention in monkeys were investigated, and the pharmacokinetic profiles thereof were evaluated.
Compound 9: Three cynomolgus monkeys (two males and one female) were provided by Guangxi Nanning Tongling Shengwu Keji Youxian Gongsi, with production license SCXK Gui-2020-0002.
Compound 9: A certain amount of the test compound was separately weighed. 5% DMSO + 30% PG + 30% PEG400 + 35% normal saline were added to prepare a 0.4 mg/mL colorless and clear solution.
Compound 9: Administration dose was 1 mg/kg and administration volume was 2.5 mL/kg.
0.5 mL of blood samples were collected from the vein before administration and at 0.25, 0.5, 1.0, 2.0, 4.0, 6.0, 8.0, 11.0, and 24.0 hours after administration and placed in EDTA-K2 anticoagulant tubes, followed by centrifugation at 10000 rpm for 2 minutes (4°C). The plasma was separated within 1 hour and stored at -20°C or -80°C for analysis. The process from blood collection to centrifugation was operated under ice bath condition.
Determination of test compound contents in […] after administration of different compounds: Compound 9: 50 µL of the monkey plasma sample collected at each time point after administration was taken. 25 µL of an internal standard acetonitrile solution (tolbutamide, 1 ug/mL) was added, followed by 450 µL of an acetonitrile solution. The mixture was vortexed and mixed, followed by centrifugation at 3700 rpm for 10 min. The supernatant was taken for LC-MS/MS analysis.

EC50 (hGLP-1 receptor) [nM]	Emax (hGLP-1 receptor) [fold]	Vd/F ([1]; read-out: Apparent volume of distribution Vz/F) [L/kg]	AUC(0-t) ([1]; read-out: Area under the curve AUC0-t) [ng·h/mL]	bioavailability ([1]; read-out: Bioavailability F) [%]	CL/F ([1]; read-out: Clearance CL/F) [mL/min/kg]	half-life ([1]; read-out: Half life T1/2 (converted)) [h]	Cmax ([1]; read-out: Plasma concentration Cmax) [ng/mL]	SMILES
0.04	18.87	–	–	–	–	–	–	Cc1cc(-n2nc3c(c2N2C[C@@H]4COc5cc6c(cnn6C(C)(C)C)c(F)c5N4C2=O)[C@H](C)N(C(=O)c2cc4cc([C@H]5CCOC(C)(C)C5)ccc4n2[C@@]2(c4noc(=O)[nH]4)C[C@@H]2C)CC3)cc(C)c1F [Compound 50, (R)-7-(tert-butyl)-2-((S)-5-(5-((S)-2,2-dimethyltetrahydro-2H-pyran-4-yl)-1-((1S,2S)-2-methyl-1-(5-oxo-4,5-dihydro-1,2,4-oxadiazol-3-yl)cyclopropyl)-1H-indole-2-carbonyl)-2-(4-fluoro-3,5-dimethylphenyl)-4-methyl-4,5,6,7-tetrahydro-2H-pyrazolo[4,3-c]pyridin-3-yl)-10-fluoro-2,3,3a,4-tetrahydro-1H,7H-imidazo[1',5':4,5][1,4]oxazino[3,2-f]indazol-1-one]
0.02	21.19	–	–	–	–	–	–	Cc1cc(-n2nc3c(c2N2C[C@@H]4COc5cc6c(cnn6CC6CC6)c(F)c5N4C2=O)[C@H](C)N(C(=O)c2cc4cc([C@H]5CCOC(C)(C)C5)ccc4n2[C@@]2(c4noc(=O)[nH]4)C[C@@H]2C)CC3)cc(C)c1F [Compound 51, (R)-7-(cyclopropylmethyl)-2-((S)-5-(5-((S)-2,2-dimethyltetrahydro-2H-pyran-4-yl)-1-((1S,2S)-2-methyl-1-(5-oxo-4,5-dihydro-1,2,4-oxadiazol-3-yl)cyclopropyl)-1H-indole-2-carbonyl)-2-(4-fluoro-3,5-dimethylphenyl)-4-methyl-4,5,6,7-tetrahydro-2H-pyrazolo[4,3-c]pyridin-3-yl)-10-fluoro-2,3,3a,4-tetrahydro-1H,7H-imidazo[1',5':4,5][1,4]oxazino[3,2-f]indazol-1-one]

Second part, the compound before the results:

SMILES	EC50 (hGLP-1 receptor) [nM]	Emax (hGLP-1 receptor) [fold]	Vd/F ([1]; read-out: Apparent volume of distribution Vz/F) [L/kg]	AUC(0-t) ([1]; read-out: Area under the curve AUC0-t) [ng·h/mL]	bioavailability ([1]; read-out: Bioavailability F) [%]	CL/F ([1]; read-out: Clearance CL/F) [mL/min/kg]	half-life ([1]; read-out: Half life T1/2 (converted)) [h]	Cmax ([1]; read-out: Plasma concentration Cmax) [ng/mL]
Cc1cc(-n2nc3c(c2-c2cncn(-c4ccc5c(cnn5C)c4)c2=O)[C@H](C)N(C(=O)c2cc4cc([C@H]5CCOC(C)(C)C5)ccc4n2[C@@]2(c4noc(=O)[nH]4)C[C@@H]2C)CC3)cc(C)c1F [Compound 9, 3-((1S,2S)-1-(5-((S)-2,2-dimethyltetrahydro-2H-pyran-4-yl)-2-((S)-2-(4-fluoro-3,5-dimethylphenyl)-4-methyl-3-(1-(1-methyl-1H-indazol-5-yl)-6-oxo-1,6-dihydropyrimidin-5-yl)-4,5,6,7-tetrahydro-2H-pyrazolo[4,3-c]pyridine-5-carbonyl)-1H-indol-1-yl)-2-methylcyclopropyl)-1,2,4-oxadiazol-5(4H)-one]	0.06	18.96	6.12	1180	44.5	12.4	5.88	178
Cc1cc(-n2nc3c(c2-c2cncn(-c4ccc5c(cnn5C5CC5)c4)c2=O)[C@H](C)N(C(=O)c2cc4cc([C@H]5CCOC(C)(C)C5)ccc4n2[C@@]2(c4noc(=O)[nH]4)C[C@@H]2C)CC3)cc(C)c1F [Compound 41, 3-((1S,2S)-1-(2-((S)-3-(1-(1-cyclopropyl-1H-indazol-5-yl)-6-oxo-1,6-dihydropyrimidin-5-yl)-2-(4-fluoro-3,5-dimethylphenyl)-4-methyl-4,5,6,7-tetrahydro-2H-pyrazolo[4,3-c]pyridine-5-carbonyl)-5-((S)-2,2-dimethyltetrahydro-2H-pyran-4-yl)-1H-indol-1-yl)-2-methylcyclopropyl)-1,2,4-oxadiazol-5(4H)-one]	0.05	18.56	–	–	–	–	–	–
C[C@H]1c2c(nn(-c3ccc(F)c(C4CC4)c3)c2-c2cncn(-c3ccc4c(cnn4C)c3)c2=O)CCN1C(=O)c1cc2cc([C@H]3CCOC(C)(C)C3)ccc2n1[C@@]1(c2noc(=O)[nH]2)C[C@@H]1C [Compound 42, 3-((1S,2S)-1-(2-((S)-2-(3-cyclopropyl-4-fluorophenyl)-4-methyl-3-(1-(1-methyl-1H-indazol-5-yl)-6-oxo-1,6-dihydropyrimidin-5-yl)-4,5,6,7-tetrahydro-2H-pyrazolo[4,3-c]pyridine-5-carbonyl)-5-((S)-2,2-dimethyltetrahydro-2H-pyran-4-yl)-1H-indol-1-yl)-2-methylcyclopropyl)-1,2,4-oxadiazol-5(4H)-one]	0.05	19.67	–	–	–	–	–	–
C[C@H]1c2c(nn(-c3ccc(F)c(C4CC4)c3)c2N2C[C@@H]3COc4cc5c(cnn5C5CC5)c(F)c4N3C2=O)CCN1C(=O)c1cc2cc([C@H]3CCOC(C)(C)C3)ccc2n1[C@@]1(c2noc(=O)[nH]2)C[C@@H]1C [Compound 46, (R)-7-cyclopropyl-2-((S)-2-(3-cyclopropyl-4-fluorophenyl)-5-(5-((S)-2,2-dimethyltetrahydro-2H-pyran-4-yl)-1-((1S,2S)-2-methyl-1-(5-oxo-4,5-dihydro-1,2,4-oxadiazol-3-yl)cyclopropyl)-1H-indole-2-carbonyl)-4-methyl-4,5,6,7-tetrahydro-2H-pyrazolo[4,3-c]pyridin-3-yl)-10-fluoro-2,3,3a,4-tetrahydro-1H,7H-imidazo[1',5':4,5][1,4]oxazino[3,2-f]indazol-1-one]	0.05	16.76	–	–	–	–	–	–
